From patent US11974990B2, “TXNIP-TRX complex inhibitors and methods of using the same” (City of Hope, priority 2018, dated 2024) come the findings set out here.

In one assay the test system is TXNIP mRNA. The assay is described as follows: TXNIP mRNA expression (RT-PCR) in murine RAW macrophages. In kind it is cell-based. The note with it: RAW cells, 25 mM glucose, 72 h (FIG. 10A). On the procedure: FIGS. 10A-10B. FIG. 10A. […] RAW cells were cultured in 25 mM glucose with C1 (uM) for 72 h. Total RNA was prepared. RT-PCR was performed. Data shown are the mean+SEM from triplicates. Statistical analysis was performed for each column vs. high glucose (HG) DMSO using one-way ANOVA: *<0.0001. FIG. 10B. […] RAW cells were cultured in 25 mM glucose with C1 (uM) for 72 hours. Total RNA was prepared. RT-PCR was performed. Data shown are the mean+SEM from triplicates. Statistical analysis was performed for each column vs. HG DMSO using one-way ANOVA: *<0.0001.
RNA extraction and quantitative RT-PCR. RNA was extracted using the Direct-zol™ RNA MiniPrep Plus (Zymo Research). Reverse transcription of RNA samples into cDNA was performed using the GeneAmp RNA PCR Kit (Applied Biosystems), dNTP (from Roche Applied Science), Rnase inhibitor, MULV Reverse Transcriptase and Random hexamers reagent (all from Invitrogen). Diluted cDNA was quantified using real-time PCR performed with Power SYBR Green qPCR MasterMix (Applied Biosystem) and 7500 real-time PCR system (Applied Biosystems). The HPRT1 gene was used as an internal control.

The next assay has as its target T1, purified TXNIP (Homo sapiens, UniProt Q9H3M7).
T1 construct: purchased LSBio (TXNIP); Sigma (TRX1); host or cells: E. coli (TXNIP)
T1 sequence (Q9H3M7 1-391): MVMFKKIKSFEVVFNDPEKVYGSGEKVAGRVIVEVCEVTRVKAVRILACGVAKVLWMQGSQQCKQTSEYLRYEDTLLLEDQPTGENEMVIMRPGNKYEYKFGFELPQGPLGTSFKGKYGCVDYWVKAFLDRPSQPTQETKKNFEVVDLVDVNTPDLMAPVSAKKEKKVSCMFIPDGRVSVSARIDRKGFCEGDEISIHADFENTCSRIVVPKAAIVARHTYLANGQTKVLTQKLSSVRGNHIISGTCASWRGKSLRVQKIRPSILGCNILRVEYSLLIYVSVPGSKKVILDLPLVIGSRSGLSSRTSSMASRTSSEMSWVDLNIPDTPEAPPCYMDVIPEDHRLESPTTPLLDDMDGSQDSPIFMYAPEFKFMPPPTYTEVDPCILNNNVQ
The assay is described as follows: DARTS assay with purified TXNIP and TRX1 proteins. It counts as binding. The note with it: purified TXNIP + TRX1, protease, 7 minutes (FIG. 16). As to the method: FIG. 16. […] Purified TRX and TXNIP proteins and C1 (at the indicated concentrations) were mixed together. Protease was added. Aliquots were withdrawn at 7 minutes and loaded on 10% SDS gels. C1: compound 1; control: without protease.
To further confirm that C1 is able to protect TXNIP from proteolysis in the presence of TXNIP+TRX1, we performed DARTS assay using pure TXNIP protein (LSBio) and TRX1 protein (Sigma). The TRX1 protein we employed is also usually used for TRX1 activity assays. In contrast, the TXNIP protein is generated by E. coli and might not be in the active form. Therefore, we re-natured the protein prior to use in the DARTS assay.

The next assay deals with T2, TXNIP-TRX complex (Homo sapiens, UniProt Q9H3M7).
T2 construct: Co-immunoprecipitation (Co-IP) of TXNIP with TRX in THP 1 monocytes cells treated with compounds under high glucose condition; endogenous in cells; host or cells: THP1 human monocytes cultured in 25 mM glucose
T2 sequence (Q9H3M7 1-391): T1 sequence (Q9H3M7 1-391)
Briefly: Co-IP using extracts from high glucose treated THP1 cells in the presence of compounds. In kind it is biochemical. The note with it: extracts of THP1 cells treated with 25 mM glucose 3 days; compounds added to extract (5 uM). As to the method:
Assay 2: Co-IP using extracts from THP 1 cells treated high glucose and in the presence of compounds. In this assay, TXNIP is already highly expressed (because the cells are treated with HG), we assume there is high concentration of TXNIP/TRX complexes in the cell extract. Co-IPs were done in these extracts through adding TRX antibody and compounds. If a compound is able to break the (pre-formed) TXNIP/TRX complex, there will be a reduced signal (band intensity) in the assay.
Co-IP with THP1 high glucose treated extract in the presence of the compounds. THP1 cells were treated with 25 mM glucose for 3 days, the cell extract were prepared. Them 300 ul extract were used for TP. Compounds were added to 5 uM Co-IP were followed according to the Co-IP protocol.
1. Transfer the cultured cells from the culture dish to a 15-mL conical tube. 2. Centrifuge at 500×g for 2 min at 4° C. and remove the supernatant. 3. Wash with ice-cold PBS and centrifuge at 500×g for 2 min at 4° C. Remove the supernatant. 4. Repeat Step 3 twice.
5. Resuspend the cell pellet in ice-cold cell lysis buffer (1 mL per 1×10^7 cells) and incubate on ice for 10 min. 6. […]
Note: Pre-clearing the lysate is recommended to reduce the non-specific binding. However, if the protein is detected by western blotting, pre-clearing may not be necessary unless a contaminating protein is interfering with visualization of the protein of interest. […]

“Also recorded” adds a separate entry of the source.

Turning to `CC(C)C(C(=O)O)N1C(=O)c2ccncc2C1=O` (stereo not drawn) [Compound C1, 2-(1,3-dioxo-1,3-dihydro-2H-pyrrolo[3,4-c]pyridin-2-yl)-3-methylbutanoic acid], the “TXNIP mRNA expression” value in the assay with TXNIP mRNA was “inhibits TXNIP mRNA expression; also recorded: inhibited TXNIP and TNF-α mRNA expression”. Further, the “protection of purified TXNIP from proteolysis” value on purified TXNIP is reported as “protects purified TXNIP from proteolysis”. Moreover, at TXNIP-TRX complex, the “effect on pre-formed TXNIP/TRX complex (co-IP band intensity)” value is given as “inhibit high glucose-induced TXNIP-TRX co-immunoprecipitation in cell extracts; also recorded: reproducibly can affect TXNIP/TRX complex”.
